In US20200383985A1, “Inhibitors of Protease Activated Receptor-2” (Endosome Therapeutics, Inc., priority 2017, published 2020):

Experiments:
PKC and ERK activity = experiment: FRET assays of compartmentalized PKC and ERK in DRG neurons; format: cell-based, rat
Description: To determine whether trypsin causes PAR2-dependent activation of PKC and ERK, which respectively mediate initial and persistent trypsin-induced hyperexcitability of nociceptors, genetically-encoded Förster Resonance Energy Transfer (FRET) biosensors were expressed in neurons. […] Trypsin (10 or 100 nM) activated PKC at the plasma membrane but not in the cytosol (FIG. 4E-G), and activated ERK in the cytosol and nucleus (FIG. 4H-J). The PAR2 antagonist I-343 (10 μM) inhibited trypsin-induced activation of PKC and ERK, whereas the PAR1 antagonist SCH530348 (100 nM) had no effect (FIG. 4F, I). At the end of experiments, neurons were challenged with the positive controls phorbol 12,13-dibutyrate (PDBu) for EKAR biosensors or PDBu plus phosphatase inhibitor mixture-2 for CKAR biosensors, to ensure that the response of the biosensor was not saturated.
DRG were collected from C57BL/6 mice and Sprague-Dawley rats (all levels). DRG were incubated with collagenase IV (2 mg/ml) and dispase II (1 mg/ml) for 30 min (mice) and 45 min (rats) at 37° C. DRG were dispersed by trituration with a fire-polished Pasteur pipette. Dissociated neurons were transfected with mPAR2-GFP (1 μg), the FRET biosensors CytoEKAR, NucEKAR, pmCKAR or CytoCKAR (all […]), or with the BRET biosensors PAR2-RLuc8 (125 ng) and βARR2-FYP (475 ng) using the Lonza 4D-Nucleofector X unit according to the manufacturer's instructions. Neurons were plated on laminin- (0.004 mg/ml) and poly-L-Lysine- (0.1 mg/ml) coated glass coverslips for confocal microscopy, on ViewPlate-96 plates (PerkinElmer) for FRET assays, or on CulturPlates (PerkinElmer) for BRET assays. Neurons were maintained in Dulbecco's modified Eagle medium (DMEM) containing 10% fetal bovine serum (FBS), antibiotic-antimitotic, and N1 supplement for 48 h before study.
Rat DRG neurons expressing FRET biosensors were serum-restricted (0.5% FBS overnight), and equilibrated in HBSS-HEPES (10 mM HEPES, pH 7.4, 30 min, 37° C.). FRET was analyzed using an Operetta CLS High-Content Imaging System (PerkinElmer) or an INCell Analyzer 2000 G E Healthcare Life Sciences). For CFP/YFP emission ratio analysis, cells were sequentially excited using a CFP filter (410-430 nm) with emission measured using YFP (520-560 nm) and CFP (460-500 nm) filters. Cells were imaged at 1 or 2 min intervals. Baseline was measured, neurons were challenged with trypsin (10 or 100 nM) or vehicle, and responses recorded for a further 30 min. Neurons were then challenged with phorbol 12,13-dibutyrate (PDBu, 200 nM, 10 min) for EKAR biosensors or PDBu (200 nM) and phosphatase inhibitor cocktail-2 (SigmaAldrich, 10 min) for CKAR biosensors. Data were analyzed using Harmony 4.1 or Image J 1.51 software. Images taken were aligned, cells were selected based on diameter, and fluorescence intensity was calculated for both FRET and CFP channels. Background intensity was subtracted and the FRET ratio was determined as the change in the FRET/donor (EKAR) or donor/FRET (CKAR) emission ratio relative to the baseline for each cell (F/Fo). Cells with >5% changes in F/F0 after PDBu stimulation were selected for analysis. Neurons were incubated with I-343 (10 μM), SCH530348 (100 nM) or vehicle (30 min, 37° C. preincubation and inclusion throughout).

PAR2-RLuc8/βARR2-YFP = target: T1, PAR2-RLuc8/βARR2-YFP (Homo sapiens, UniProt P55085); experiment: BRET assay of βARR2 recruitment in DRG neurons; format: cell-based; conditions: mouse DRG neurons
T1 construct: expressed in transfected cells; host or cells: mouse (C57BL/6) DRG neurons, nucleofection
T1 sequence (P55085 26-397): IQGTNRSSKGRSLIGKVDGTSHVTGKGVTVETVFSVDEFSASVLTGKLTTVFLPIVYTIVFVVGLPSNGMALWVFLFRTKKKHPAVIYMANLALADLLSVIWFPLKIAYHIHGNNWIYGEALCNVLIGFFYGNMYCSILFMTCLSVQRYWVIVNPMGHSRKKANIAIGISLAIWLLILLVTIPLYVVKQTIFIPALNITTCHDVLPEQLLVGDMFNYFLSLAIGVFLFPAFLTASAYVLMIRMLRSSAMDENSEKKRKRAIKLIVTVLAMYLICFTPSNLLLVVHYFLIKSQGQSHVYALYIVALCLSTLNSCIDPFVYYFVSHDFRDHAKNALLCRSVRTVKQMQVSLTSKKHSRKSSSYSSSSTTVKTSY
Description: To assess endocytosis of PAR2 in nociceptors, mouse (m) PAR2-GFP was transfected in to mouse DRG neurons. In vehicle-treated neurons, mPAR2-GFP was detected at the plasma membrane and in intracellular compartments that may correspond to stores of PAR2 in the Golgi apparatus (FIG. 4A) (Jensen D. D., et al. J Biol Chem. 2016, 291(21): 11285-11299). Trypsin, but not NE or CS (100 nM, 30 min), induced mPAR2-GFP endocytosis (FIG. 4A, B). Dy4, but not Dy4 inact, inhibited trypsin-induced endocytosis of mPAR2-GFP (FIG. 4C). To determine whether PAR2 recruits βARRs, which mediate endocytosis, Bioluminescence Resonance Energy Transfer (BRET) sensors were expressed for PAR2-RLuc8 (donor) and βARR2-YFP (acceptor) in mouse DRG neurons. Trypsin, but not NE or CS, increased PAR2-RLuc8/βARR2-YFP BRET (FIG. 4D).
DRG were collected from C57BL/6 mice and Sprague-Dawley rats (all levels). […]
Mouse DRG neurons were equilibrated in HBSS-HEPES (30 min, 37° C.), and incubated with the Renilla luciferase substrate coelenterazine h (NanoLight Technologies) (5 μM, 5 min). BRET ratios were measured at 475±30 nm and 535±30 nm using a CLARIOstar Monochronometer Microplate Reader (BMG LabTech) before and after challenge with trypsin (10 nM), NE (100 nM) or CS (100 nM). Data are presented as a BRET ratio, calculated as the ratio of YFP to RLuc8 signals, and normalized to the baseline average. […]

[1] = trypsin 10 or 100 nM, rat DRG neurons

Compound | trypsin-induced activation of PKC and ERK (PKC and ERK activity; I-343 10 μM, SCH530348 100 nM) | PAR2-RLuc8/βARR2-YFP BRET (PAR2-RLuc8/βARR2-YFP) | ERK activity in the cytosol and nucleus (PKC and ERK activity; [1]) | PKC activity at the plasma membrane (PKC and ERK activity; [1]) | PKC activity in the cytosol (PKC and ERK activity; [1])
Cc1nc(C(=O)N2CCN(C(=O)c3cn4nc(-c5ccc(F)cc5)cc(C(C)(C)C)c4n3)C(C)(C)C2)n[nH]1 [Compound I-343, (8-(tert-butyl)-6-(4-fluorophenyl)imidazo[1,2-b]pyridazin-2-yl)(2,2-dimethyl-4-(5-methyl-1H-1,2,4-triazole-3-carbonyl)piperazin-1-yl)methanone] | inhibited |  |  |  | 
NE: protease (elastase) activating PAR2 by biased mechanisms |  | not |  |  | 
trypsin |  | increased | activated | activated | not
